From PMC9043997, “LEAP2 reduces postprandial glucose excursions and ad libitum food intake in healthy men” (Cell Reports Medicine, 2022)
Where a SMILES comes first, the peptide text is derived from it. Bridges are numbered along the chain shown (N, C = ends).

Experiments:
Type in all cases: in vivo, human
healthy men [1] = test: Plasma free fatty acids, glycerol and triglycerides during LEAP2 infusion, crossover study; conditions: mean ± SEM
Source text: (§1) The infusion was terminated when participants had finished eating.
For analysis of plasma glucose, blood was distributed in fluoride heparin-coated tubes, centrifuged immediately for 30 s (12,100 g, room temperature) and measured bedside by the glucose oxidase method (YSI 2900 Biochemistry Analyzer; YSI Incorporated, Yellow Springs, Ohio, USA). For analysis of LEAP2, blood was collected in chilled K3EDTA tubes each containing 250 KIU of aprotinin. For analysis of acyl ghrelin, blood was collected in chilled K2EDTA tubes added 20 μL pefabloc (100 mg/mL; Merck Millipore, Burlington, Massachusetts, USA). Subsequently, pefabloc-treated plasma was acidified with HCl (12.5 μL 2M HCl per 500 μL plasma; Merck Millipore, Burlington, Massachusetts, USA). For analysis of glucagon, blood was collected in K2EDTA tubes. For analysis of GH, insulin, C-peptide, free fatty acids, glycerol, triglycerides and acetaminophen (paracetamol), blood was collected in tubes with lithium and heparin. All tubes were immediately cooled on ice, centrifuged for 15 min (2,000 g, 4°C) and stored at −80°C until analysis. LEAP2 concentrations were determined by an in-house radioimmunoassay directed against the N-terminal part of LEAP2. LEAP-2 was used for standards, and the tracer was a peptide composed of the 12 N-terminal amino acids of LEAP2, with a ^125I-labelled tyrosine added to the C-terminal end. The precision and accuracy of the assay were evaluated based on European Medicines Agency's guidelines for bioanalytical assay validation. […] Due to supply chain disruptions from the COVID-19 pandemic, acyl ghrelin was only measured in plasma samples at timepoints 0, 60, 105, 165 and 255 min. […] Plasma GH was measured by Immunodiagnostic system-iSYS assay (IS-3700; IDS Limited, Boldon, UK). The assay is based on chemiluminesence technology and was performed according to the manufacturer’|'s instructions. […] For analysis of glucagon, plasma was extracted in a final concentration of 70% ethanol. Glucagon was measured using a C-terminal directed antiserum (code number 4305) measuring glucagon of pancreatic origin as previously described.[40] […] Plasma insulin and C-peptide were measured using a two-sided electrochemiluminescence immunoassay (Atellica IM Analyzer; Siemens Healthcare, Ballerup, Denmark). Plasma triglycerides and acetaminophen were analyzed by spectrophotometric methods following enzymatic hydrolysis and oxidation (Siemens Atellica CH 930; Siemens Healthcare, Ballerup, Denmark). Plasma concentrations of free fatty acids and glycerol were determined by enzymatic methods modified to run on a COBAS 6000 automatic analyzer (Roche, Rødovre, Denmark) using a NEFA-HR assay (Wako Chemicals, Neuss, Germany) and glycerol assay (Randox Laboratories, Crumlin, UK), respectively.
Unless otherwise stated, results are presented as mean ± SEM. Baseline values were calculated as a mean of timepoints −35, −10 and 0 min or, when only available −10 and 0 min. Baseline values for the postprandial period were calculated as a mean of timepoint 60 min. Calculations of AUC were based on the trapezoidal rule. AUC values are reported for the period 0 to 255 min. To assess the fasting and postprandial periods separately, AUC values are reported for the periods 0 to 60 min and 60 to 255 min, respectively. Student’s paired t test was used to test for differences in baseline, peak, time to peak, AUC and mean values and ad libitum food intake in men.

healthy men [2] = test: Ad libitum meal test at the end of the infusion period; conditions: healthy men n = 20, iv LEAP2 ~25 pmol/kg/min
Method: as §1
Unless otherwise stated, results are presented as mean ± SEM. Baseline values were calculated as a mean of timepoints −35, −10 and 0 min or, when only available −10 and 0 min. Baseline values for the postprandial period were calculated as a mean of timepoint 60 min. Calculations of AUC were based on the trapezoidal rule. AUC values are reported for the period 0 to 255 min. To assess the fasting and postprandial periods separately, AUC values are reported for the periods 0 to 60 min and 60 to 255 min, respectively. Student’s paired t test was used to test for differences in baseline, peak, time to peak, AUC and mean values and ad libitum food intake in men. Indirect calorimetry and thermal imaging data were fitted to a repeated-measures mixed effects model with the intervention and timepoints as independent variables with interaction and Geisser-Greenhouse correction. Šidák’s post hoc test was used to compare LEAP2 to placebo for each timepoint. For analysis of endogenous LEAP2 concentrations in response to a liquid mixed meal test, postprandial data during placebo infusion were fitted to a repeated-measures mixed effects model with time as a fixed effect and the individual participant as a random effect with Geisser-Greenhouse correction. Dunnett’s post hoc test was used to compare endogenous LEAP2 concentrations at each timepoint (75 to 255 min) to the postprandial baseline. Mouse plasma glucose, food intake and insulin data were analyzed by a repeated-measures two-way ANOVA with Šidák’s post hoc test. Statistical analyses were carried out using GraphPad Prism v9.0.0 and v9.1.1 (GraphPad Software, San Diego, California). A two-sided p value < 0.05 was considered statistically significant. The population size calculation was based on data from a previous study investigating the reproducibility of an ad libitum meal in healthy men.[41] Eighteen participants were needed to detect a difference of minimum 500 kJ in ad libitum food intake with a with-in subject difference of 739 kJ, a power of 80% and the above-mentioned significance level. To ensure sufficient power, 20 participants were included.

healthy men [3] = test: Visual analog scale ratings of appetite-related sensations, crossover study; conditions: healthy men n = 20, iv LEAP2 ~25 pmol/kg/min, 100 mm VAS, paired t test of AUC
Method: Sensations of hunger, satiety, prospective food consumption, fullness, nausea, comfort and thirst were rated on 100 mm VAS at timepoints −35, 0, 30, 75, 105, 135, 165, 195, 225 and 255 min and after the ad libitum meal.[34] After eating, participants evaluated the ad libitum meal by VAS with a score (median (interquartile range)) for appearance of 55 (36–72) mm, taste 65 (42–76) mm, off-notes 17 (7–31) mm, smell 63 (50–72) mm and overall impression 59 (45–73) mm indicating a moderate evaluation of the meal.

[4] = healthy men n = 20, LEAP2 day, before infusion
[5] = healthy men n = 20, iv LEAP2 ~25 pmol/kg/min, 0 to 255 min
[6] = healthy men n = 20, iv LEAP2 ~25 pmol/kg/min, fasting period
[7] = healthy men n = 20, iv LEAP2 ~25 pmol/kg/min, liquid mixed meal at 65 min
[8] = healthy men n = 20, iv LEAP2 ~25 pmol/kg/min, postprandial period
[9] = healthy men n = 20, iv LEAP2 ~25 pmol/kg/min, time = 60 min

CC[C@H](C)[C@@H]1NC(=O)[C@@H]2CSSC[C@@H](C(=O)N[C@@H](CO)C(=O)N[C@@H](CC(C)C)C(=O)N[C@@H](CO)C(=O)N[C@H](C(=O)N[C@@H](C)C(=O)N[C@@H](CCC(N)=O)C(=O)N[C@@H](CCC(=O)O)C(=O)O)C(C)C)NC(=O)[C@H](CCCNC(=N)N)NC(=O)[C@H](CCCNC(=N)N)NC(=O)[C@H](CCCCN)NC(=O)[C@H](CCCNC(=N)N)NC(=O)[C@H](CSSC[C@H](NC(=O)[C@H](CO)NC(=O)[C@H](C)NC(=O)CNC(=O)[C@@H](NC(=O)[C@@H]3CCCN3C(=O)[C@H](CCCNC(=N)N)NC(=O)[C@H](CC(C)C)NC(=O)[C@H](CO)NC(=O)[C@@H](NC(=O)CNC(=O)[C@H](CCCNC(=N)N)NC(=O)[C@H](Cc3c[nH]c4ccccc34)NC(=O)[C@H](Cc3ccccc3)NC(=O)[C@@H]3CCCN3C(=O)[C@@H](NC(=O)[C@@H](N)CCSC)[C@@H](C)O)C(C)C)[C@@H](C)CC)C(=O)N[C@@H](CCCNC(=N)N)C(=O)N[C@@H](CC(=O)O)C(=O)N[C@@H](CC(=O)O)C(=O)N[C@@H](CO)C(=O)N[C@@H](CCC(=O)O)C(=O)N2)NC(=O)[C@H](CC(C)C)NC(=O)[C@H](CCCNC(=N)N)NC(=O)[C@H]([C@@H](C)O)NC1=O [LEAP2, liver-expressed antimicrobial peptide 2] (H-MTPFWRGVSLRPIGASCRDDSECITRLCRKRRCSLSVAQE-OH; disulfide 17-28, 23-33 (inferred); N-terminus and C-terminus assumed)
Free fatty acids Baseline (healthy men [1]; [4]): 339 ± 18.4 µmol/L | Glycerol Baseline (healthy men [1]; [4]): 26.6 ± 2.45 µmol/L | Triglycerides Baseline (healthy men [1]; [4]): 920 ± 62.2 µmol/L | Free fatty acids AUC (healthy men [1]; [5]): 43.2 ± 2.49 mmol·min/L | Glycerol AUC (healthy men [1]; [5]): 4.87 ± 0.57 mmol·min/L | Triglycerides AUC (healthy men [1]; [5]): 263 ± 16.7 mmol·min/L | Free fatty acids AUC0–60 min (healthy men [1]; [6]): 18.9 ± 1.18 mmol·min/L | Glycerol AUC0–60 min (healthy men [1]; [6]): 1.65 ± 0.15 mmol·min/L | Triglycerides AUC0–60 min (healthy men [1]; [6]): 53.5 ± 3.14 mmol·min/L | Free fatty acids Nadir (healthy men [1]; [7]): 58.4 ± 3.94 µmol/L | Free fatty acids Time to nadir (healthy men [1]; [7]): 155 ± 7.63 min | Glycerol Nadir (healthy men [1]; [7]): 11.7 ± 2.12 µmol/L | Glycerol Time to nadir (healthy men [1]; [7]): 144 ± 10.2 min | Triglycerides Peak (healthy men [1]; [7]): 1,275 ± 84.8 μmol/L | Triglycerides Time to peak (healthy men [1]; [7]): 195 ± 5.33 min | Free fatty acids AUC60–255 min (healthy men [1]; [8]): 24.4 ± 1.51 mmol·min/L | Glycerol AUC60–255 min (healthy men [1]; [8]): 3.22 ± 0.44 mmol·min/L | Triglycerides AUC60–255 min (healthy men [1]; [8]): 210 ± 13.8 mmol·min/L | Free fatty acids Postprandial baseline (healthy men [1]; [9]): 272 ± 16.4 µmol/L | Glycerol Postprandial baseline (healthy men [1]; [9]): 22.9 ± 2.12 µmol/L | Triglycerides Postprandial baseline (healthy men [1]; [9]): 847 ± 48.3 µmol/L | mean difference in ad libitum food intake per kg body weight (placebo vs LEAP2) (healthy men [2]; 95% CI, p = 0.0029): 5.4 kJ/kg | mean difference in total ad libitum food intake (placebo vs LEAP2) (healthy men [2]; 95% CI, p = 0.0041): 432 kJ | mean difference in duration of the ad libitum meal (placebo vs LEAP2) (healthy men [2]; 95% CI, p = 0.0303): 1.5 min | reduction in energy intake during ad libitum meal compared with placebo (healthy men [2]; pasta Bolognese served 260 min after start of infusion): ~12% | VAS ratings of hunger, satiety, prospective food consumption, fullness, nausea, comfort, or thirst, LEAP2 vs placebo (healthy men [3]): no differences
